{"source": "patent US20260053811A1", "about": "“METHODS OF TREATING HYPERTENSION IN OBESE SUBJECTS” (Mineralys Therapeutics, Inc., priority 2022, published 2026)", "tested_on": "hypertensive subjects", "test": "Seated automated office blood pressure (AOBP) in randomized, placebo-controlled, dose-ranging study", "format": "in vivo, human", "details": "100 mg QD; for Mean Automated Office-Measured Systolic Blood Pressure at Wk 8 / Mean Change from Baseline at Week 8 in Automated Office-Measured Systolic Blood Pressure / Automated Office-Measured Diastolic Blood Pressure, Week 8, mean / Change from Baseline at Week 8 in Automated Office-Measured Diastolic Blood Pressure, mean: Part 2", "experimental": "A randomized, double-blinded, placebo-controlled, dose-ranging, multicenter study was conducted to evaluate the effect of orally administered Compound A HBr on blood pressure for the treatment of hypertension in male and female subjects ≥18 years of age.\nThe study consists of two parts. For enrollment into Part 1 of the study, a subject's value of plasma renin activity (PRA) must be ≤1 ng/mL/h based on morning measurement. If the value of PRA >1 ng/mL/h based on morning measurement, then subjects may be eligible to enter Part 2 of the study.\nFor Part 1, 163 enrolled subjects ≥18 years of age were randomized into 6 equal treatment groups (1:1:1:1:1:1) to 12.5 mg BID, 25 mg BID, 12.5 mg QD, 50 mg QD, 100 mg QD, or placebo. After a review of interim clinical data, the 2 lowest dose levels (12.5 mg QD and 12.5 mg BID) were stopped for future randomization due to a lack of consistent meaningful reduction of blood pressure, but the patients randomized to that point remained in the study through completion. Thus, after the review of interim clinical data, subjects were randomized into 4 equal treatment groups (1:1:1:1) to 25 mg BID, 50 mg QD, 100 mg QD, or placebo.\nFor Part 2, 36 enrolled subjects ≥18 years of age were randomized (5:1) to either 100 mg QD Compound A HBr or placebo such that the Compound A HBr treatment group consisted of approximately 30 subjects and the placebo treatment group will consist of approximately 6 subjects.\nSubjects orally administered the assigned study drug (Compound A HBr or placebo) according to the assigned dosing regimen for 8 weeks beginning on Study Day 1. All subjects in Part 1 (regardless of dosing group) received BID dosing to preserve the integrity of the blind; active drug is administered as the morning dose for all QD dose groups. Subjects returned to the research facility or were seen by the clinical investigator or approved home health care professional at the end of Study Weeks 1, 2, 3, 4, 5, 6, 7, and 8 (±2 days) for protocol-defined efficacy and safety assessments and procedures, assessment of adverse events (AEs), and confirmation of compliance with study drug usage. Subjects also completed a telephone visit and blood pressure (BP) check at home approximately 3 days post last dose of study drug. Subjects attended up to 14 full clinic visits, including a pre-Screening visit, a Screening/start of Placebo Run-in visit, a second visit during Placebo Run-in, a clinic visit to initiate the ABPM procedure, a Randomization visit, 8 weekly visits during double-blind treatment, and an end-of-study visit scheduled 4 weeks after the last study treatment for final efficacy and safety assessments.\nAn automated oscillometric sphygmomanometer device was used to measure the subjects' systolic and diastolic blood pressure in office after approximately 5 minutes of rest in the seated position.\nThe primary endpoint is the change in office-measured (mean of last 2 of 5 unattended measurements using an automated oscillometric sphygmomanometer device after approximately 5 minutes of rest in the seated position) systolic blood pressure (SBP) from baseline to the end of Study Week 8.\nSecondary endpoints of this study were: • (a) Change in 24-hour ambulatory blood pressure monitoring (ABPM) parameters (systolic and diastolic) from baseline to the end of Study Week 7. • (b) Change in office-measured SBP from baseline to the end of Study Weeks 1, 2, 3, 4, 5, 6, and 7. • (c) Change in office-measured diastolic blood pressure (DBP) from baseline to the end of Study Weeks 1, 2, 3, 4, 5, 6, 7, and 8. • (d) Proportion of subjects who achieve office-measured BP of ≤130/80 mm Hg by the end of Study Week 8.", "key": {"[1]": {"details": "Part 1, Thiazide Diuretic Use at Baseline No"}, "[2]": {"details": "Part 1, Thiazide Diuretic Use at Baseline Yes"}, "[3]": {"details": "Systolic Blood Pressure Tertile at Baseline High"}, "[4]": {"details": "Systolic Blood Pressure Tertile at Baseline Low"}, "[5]": {"details": "Systolic Blood Pressure Tertile at Baseline Middle"}, "[6]": {"details": "Thiazide Diuretic Use at Baseline No"}, "[7]": {"details": "Thiazide Diuretic Use at Baseline Yes"}}, "data": [{"smiles": "CC(=O)N[C@H]1CC[C@H](NC(=O)CN2CCN(c3nncc(-c4ccc(C)cc4)n3)CC2)CC1", "note": "[Compound A HBr]", "values": [{"measurement": "Mean (SD) Change from Baseline at Week 8 in Automated Office-Measured Diastolic Blood Pressure", "setting": "[1]", "value": "−4.00 (6.33) mmHg"}, {"measurement": "Mean (SD) Change from Baseline at Week 8 in Automated Office-Measured Systolic Blood Pressure", "setting": "[1]", "value": "−9.15 (9.27) mmHg"}, {"measurement": "Automated Office-Measured Diastolic Blood Pressure, Week 8, Mean (SD)", "setting": "[2]", "value": "73.40 (8.98) mmHg"}, {"measurement": "Mean (SD) Automated Office-Measured Systolic Blood Pressure at Wk 8", "setting": "[2]", "value": "128.27 (16.26) mmHg"}, {"measurement": "Mean (SD) Change from Baseline at Week 8 in Automated Office-Measured Diastolic Blood Pressure", "setting": "[2]", "value": "−6.43 (8.79) mmHg"}, {"measurement": "Mean (SD) Change from Baseline at Week 8 in Automated Office-Measured Systolic Blood Pressure", "setting": "[2]", "value": "−17.37 (14.74) mmHg"}, {"measurement": "Mean Automated Office-Measured Systolic Blood Pressure at Wk 8", "setting": "ACEi/ARB No", "value": 131.00, "unit": "mmHg"}, {"measurement": "Mean Change from Baseline at Week 8 in Automated Office-Measured Systolic Blood Pressure", "setting": "ACEi/ARB No", "value": "−4.00", "unit": "mmHg"}, {"measurement": "Mean Automated Office-Measured Systolic Blood Pressure at Wk 8", "setting": "ACEi/ARB Yes", "value": 129.24, "unit": "mmHg"}, {"measurement": "Mean Change from Baseline at Week 8 in Automated Office-Measured Systolic Blood Pressure", "setting": "ACEi/ARB Yes", "value": "−11.45", "unit": "mmHg"}, {"measurement": "Mean Automated Office-Measured Systolic Blood Pressure at Wk 8", "setting": "AHTs 2", "value": 127.84, "unit": "mmHg"}, {"measurement": "Mean Change from Baseline at Week 8 in Automated Office-Measured Systolic Blood Pressure", "setting": "AHTs 2", "value": "−10.37", "unit": "mmHg"}, {"measurement": "Mean Automated Office-Measured Systolic Blood Pressure at Wk 8", "setting": "AHTs ≥3", "value": 131.82, "unit": "mmHg"}, {"measurement": "Mean Change from Baseline at Week 8 in Automated Office-Measured Systolic Blood Pressure", "setting": "AHTs ≥3", "value": "−12.64", "unit": "mmHg"}, {"measurement": "Mean Automated Office-Measured Systolic Blood Pressure at Wk 8", "setting": "Age 65-79 yr", "value": 132.81, "unit": "mmHg"}, {"measurement": "Mean Change from Baseline at Week 8 in Automated Office-Measured Systolic Blood Pressure", "setting": "Age 65-79 yr", "value": "−9.69", "unit": "mmHg"}, {"measurement": "Mean Automated Office-Measured Systolic Blood Pressure at Wk 8", "setting": "Age <65 yr", "value": 120.88, "unit": "mmHg"}, {"measurement": "Mean Change from Baseline at Week 8 in Automated Office-Measured Systolic Blood Pressure", "setting": "Age <65 yr", "value": "−13.06", "unit": "mmHg"}, {"measurement": "Mean Automated Office-Measured Systolic Blood Pressure at Wk 8", "setting": "Age ≥80 yr", "value": 123.00, "unit": "mmHg"}, {"measurement": "Mean Change from Baseline at Week 8 in Automated Office-Measured Systolic Blood Pressure", "setting": "Age ≥80 yr", "value": "−28.00", "unit": "mmHg"}, {"measurement": "Mean Automated Office-Measured Systolic Blood Pressure at Wk 8", "setting": "BMI at baseline 25-30 kg/m^2", "value": 126.80, "unit": "mmHg"}, {"measurement": "Mean Change from Baseline at Week 8 in Automated Office-Measured Systolic Blood Pressure", "setting": "BMI at baseline 25-30 kg/m^2", "value": "−14.60", "unit": "mmHg"}, {"measurement": "Mean Automated Office-Measured Systolic Blood Pressure at Wk 8", "setting": "BMI at baseline <25 kg/m^2", "value": 130.00, "unit": "mmHg"}, {"measurement": "Mean Change from Baseline at Week 8 in Automated Office-Measured Systolic Blood Pressure", "setting": "BMI at baseline <25 kg/m^2", "value": "−6.50", "unit": "mmHg"}, {"measurement": "Mean Automated Office-Measured Systolic Blood Pressure at Wk 8", "setting": "BMI at baseline >30 kg/m^2", "value": 132.08, "unit": "mmHg"}, {"measurement": "Mean Change from Baseline at Week 8 in Automated Office-Measured Systolic Blood Pressure", "setting": "BMI at baseline >30 kg/m^2", "value": "−8.00", "unit": "mmHg"}, {"measurement": "Mean Automated Office-Measured Systolic Blood Pressure at Wk 8", "setting": "Race Black or AA", "value": 125.83, "unit": "mmHg"}, {"measurement": "Mean Change from Baseline at Week 8 in Automated Office-Measured Systolic Blood Pressure", "setting": "Race Black or AA", "value": "−15.83", "unit": "mmHg"}, {"measurement": "Mean Automated Office-Measured Systolic Blood Pressure at Wk 8", "setting": "Race Other", "value": 130.17, "unit": "mmHg"}, {"measurement": "Mean Change from Baseline at Week 8 in Automated Office-Measured Systolic Blood Pressure", "setting": "Race Other", "value": "−10.04", "unit": "mmHg"}, {"measurement": "Mean Automated Office-Measured Systolic Blood Pressure at Wk 8", "setting": "Sex Female", "value": 127.90, "unit": "mmHg"}, {"measurement": "Mean Change from Baseline at Week 8 in Automated Office-Measured Systolic Blood Pressure", "setting": "Sex Female", "value": "−11.15", "unit": "mmHg"}, {"measurement": "Mean Automated Office-Measured Systolic Blood Pressure at Wk 8", "setting": "Sex Male", "value": 132.10, "unit": "mmHg"}, {"measurement": "Mean Change from Baseline at Week 8 in Automated Office-Measured Systolic Blood Pressure", "setting": "Sex Male", "value": "−11.30", "unit": "mmHg"}, {"measurement": "Mean Automated Office-Measured Systolic Blood Pressure at Wk 8", "setting": "[3]", "value": 132.36, "unit": "mmHg"}, {"measurement": "Mean Change from Baseline at Week 8 in Automated Office-Measured Systolic Blood Pressure", "setting": "[3]", "value": "−17.05", "unit": "mmHg"}, {"measurement": "Mean Automated Office-Measured Systolic Blood Pressure at Wk 8", "setting": "[4]", "value": 124.11, "unit": "mmHg"}, {"measurement": "Mean Change from Baseline at Week 8 in Automated Office-Measured Systolic Blood Pressure", "setting": "[4]", "value": "−7.56", "unit": "mmHg"}, {"measurement": "Mean Automated Office-Measured Systolic Blood Pressure at Wk 8", "setting": "[5]", "value": 130.60, "unit": "mmHg"}, {"measurement": "Mean Change from Baseline at Week 8 in Automated Office-Measured Systolic Blood Pressure", "setting": "[5]", "value": "−8.05", "unit": "mmHg"}, {"measurement": "Automated Office-Measured Diastolic Blood Pressure, Week 8, mean", "setting": "[6]", "value": 68.42, "unit": "mmHg"}, {"measurement": "Change from Baseline at Week 8 in Automated Office-Measured Diastolic Blood Pressure, mean", "setting": "[6]", "value": "−8.13", "unit": "mmHg"}, {"measurement": "Mean Automated Office-Measured Systolic Blood Pressure at Wk 8", "setting": "[6]", "value": 125.67, "unit": "mmHg"}, {"measurement": "Mean Change from Baseline at Week 8 in Automated Office-Measured Systolic Blood Pressure", "setting": "[6]", "value": "−12.25", "unit": "mmHg"}, {"measurement": "Automated Office-Measured Diastolic Blood Pressure, Week 8, mean", "setting": "[7]", "value": 74.67, "unit": "mmHg"}, {"measurement": "Change from Baseline at Week 8 in Automated Office-Measured Diastolic Blood Pressure, mean", "setting": "[7]", "value": "−4.06", "unit": "mmHg"}]}]}
